Experimental data as given in patent publication EP3074389B1, “QUINOLINE DERIVATIVES AS BROMODOMAIN INHIBITORS” (Gilead Sciences, Inc., priority 2013, dated 2015).

Assays:
BRD4 domain 1 = BRD4 domain 1 (Homo sapiens, UniProt O60885); assay: Kd determination of inhibitors binding to BRD4 domain 1 (Epic label-free platform); details: direct binding to immobilized BRD4 domain 1; tripling dilution series from 20µM; about 1hr equilibrium; rounded to whole number; read-out: Epic Kd BRD41
Description: (§1) Kd Determination of Inhibitors Binding to BRD4 Domain 1 and Domain 2
(§2) The binding of small molecule inhibitors to either BRD4 domain 1 or domain 2 were determined using the Epic, high-throughput, label-free platform (Corning, Lowell, MA). The Epic instrument incorporates an evanescent waveguide sensor within each well of its proprietary 384-well microplates. Direct binding of inhibitors to BRD4 immobilized onto the microplate well surface can be detected by exposing the waveguide to a broadband light source. The resulting resonant wavelength shift (measured in picometers (pm)) is proportional to the mass bound to the surface. Epic biochemical plates (Corning, Lowell, MA) were activated by adding 15 µL/well of 200 mM EDC and 50 mM Sulfo-NHS (Pierce Thermo Scientific, Rockford, IL) and incubated for 60 minutes at room temperature. Plates were washed three times with MilliQ water and dried by centrifugation (1 minute at 400 rpm). BRD4 immobilization was accomplished by resuspending the protein at a concentration of 150 µg/mL in 20 mM HEPES (pH 7) and adding 10 µL/well. […] Compound/inhibitor binding was determined by calculating difference between the baseline (first read) and second read. The resulting binding response was fitted to a single site binding isotherm in order to determine an equilibrium dissociation constant (Kd).

BRD4 domain 2 = BRD4 domain 2 (Homo sapiens, UniProt O60885); assay: Kd determination of inhibitors binding to BRD4 domain 2 (Epic label-free platform); details: direct binding to immobilized BRD4 domain 2; tripling dilution series from 20µM; about 1hr equilibrium; rounded to whole number
Description: as §1, §2

| Compound | Kd (BRD4 domain 1) [µM] | Kd (BRD4 domain 2) [µM] |
| --- | --- | --- |
| Cc1noc(C)c1-c1cc(S(=O)(=O)N[C@@H]2CCC[C@H]2N)c2cccnc2c1 (stereo in doubt) [Compound 46, N-((1R,2R)-2-aminocyclopentyl)-7-(3,5-dimethylisoxazol-4-yl)quinoline-5-sulfonamide] | 6.42 | 7.83 |
| Cc1noc(C)c1-c1cc(S(=O)(=O)NC2CCCC2)c2ccc(C(F)F)nc2c1 [Compound 2, N-cyclopentyl-2-(difluoromethyl)-7 - (3,5-dimethylisoxazol-4-yl)quinoline-5-sulfonamide] | 3.38 | 1.32 |
| Cc1noc(C)c1-c1cc(S(=O)(=O)NC2CCCC2)c2ccc(Cl)nc2c1 [Compound 3, 2-chloro-N-cyclopentyl-7-(3,5-dimethylisoxazol-4-yl)quinoline-5-sulfonamide] | 1.25 | 2.97 |
| Cc1noc(C)c1-c1cc(S(=O)(=O)NC2CCCC2)c2ccc(C3CC3)nc2c1 [Compound 4, N-cyclopentyl-2-cyclopropyl-7-(3,5-dimethylisoxazol-4-yl)quinoline-5-sulfonamide] | 1.44 | 3.5 |
| Cc1noc(C)c1-c1cc(S(=O)(=O)NC2CCCC2)c2ccc(NCC3CC3)nc2c1 [Compound 5, N-cyclopentyl-2-((cyclopropylmethyl)amino)-7-(3,5-dimethylisoxazol-4-yl)quinoline-5-sulfonamide] | 1.06 | 1.46 |
| Cc1noc(C)c1-c1cc(S(=O)(=O)NC2CCCC2)c2ccc(OCC3CC3)nc2c1 [Compound 6, N-cyclopentyl-2-(cyclopropylmethoxy) -7-(3,5-dimethylisoxazol-4-yl)quinoline-5-sulfonamide] | 2.11 | 2.04 |
| Cc1noc(C)c1-c1cc(S(=O)(=O)NC2CC2)c2cccnc2c1 [Compound 8, N-cyclopropyl-7-(3,5-dimethylisoxazol-4-yl)quinoline-5-sulfonamide] | 3.95 | 2.25 |
| Cc1noc(C)c1-c1cc(S(=O)(=O)N(C)C2CC2)c2cccnc2c1 [Compound 9, N-cyclopropyl-7-(3,5-dimethylisoxazol-4-yl)-N-methylquinoline-5-sulfonamide] | > 20 | 12.5 |
| Cc1noc(C)c1-c1cc(S(=O)(=O)NC2CCC2)c2cccnc2c1 [Compound 10, N-cyclobutyl-7-(3,5-dimethylisoxazol-4-yl)quinoline-5-sulfonamide] | 3.19 | 2.68 |
| Cc1noc(C)c1-c1cc(S(=O)(=O)NCC2CC(F)(F)C2)c2cccnc2c1 [Compound 11, N-((3,3-difluorocyclobutyl)methyl)-7-(3,5-dimethylisoxazol-4-yl)quinoline-5-sulfonamide] | 12.8 | > 20 |
| Cc1noc(C)c1-c1cc(S(=O)(=O)N[C@@H]2C[C@H]2c2ccccc2)c2cccnc2c1 [Compound 12, 7-(3,5-dimethylisoxazol-4-yl)-N-((1R,2S)-2-phenylcyclopropyl)qui noline-5-sulfonamide] | 15.8 | > 20 |
| Cc1noc(C)c1-c1cc(S(=O)(=O)N[C@@H]2CCC[C@@H]2c2ccc(F)cc2)c2cccnc2c1 [Compound 13, 7-(3,5-dimethylisoxazol-4-yl)-N-((1R,2R)-2-(4-fluorophenyl)cyclopentyl)quinoline-5-sulfonamide] | 10 | 12.4 |
| Cc1noc(C)c1-c1cc(S(=O)(=O)NCC2CC2)c2cccnc2c1 [Compound 15, N-(cyclopropylmethyl)-7-(3,5-dimethylisoxazol-4-yl)quinoline-5-sulfonamide] | 9.43 | 5.9 |
| COc1ccc2c(S(=O)(=O)NC3CCCC3)cc(-c3c(C)noc3C)cc2n1 [Compound 16, N-cyclopentyl-7-(3,5-dimethylisoxazol-4-yl)-2-methoxyquinoline-5 - sulfonamide] | 3.37 | 6.3 |
| Cc1noc(C)c1-c1cc(S(=O)(=O)NC2CCCC2)c2ccc(N)nc2c1 [Compound 17, 2-amino-N-cyclopentyl-7-(3,5-dimethylisoxazol-4-yl)quinoline-5-sulfonamide] | 0.885 | 1.11 |
| Cc1noc(C)c1-c1cc(S(=O)(=O)NC2CCCC2)c2cccnc2c1Cl [Compound 18, 8-chloro-N-cyclopentyl-7-(3,5-dimethylisoxazol-4-yl)quinoline-5-sulfonamide] | 9.15 | 4.26 |

| Compound | Kd (BRD4 domain 1) [µM] | Kd (BRD4 domain 2) [µM] |
| --- | --- | --- |
| Cc1noc(C)c1-c1cc(S(=O)(=O)N[C@H]2CC[C@@H](O)C2)c2cccnc2c1 [Compound 19, 7-(3,5-dimethylisoxazol-4-yl)-N-((1S,3R)-3-hydroxycyclopentyl)q uinoline-5-sulfonamide] | 16.6 | 7.72 |
| Cc1noc(C)c1-c1cc(S(=O)(=O)N[C@@H]2CCC[C@H](O)C2)c2cccnc2c1 [Compound 20, 7-(3,5-dimethylisoxazol-4-yl)-N-((1R,3S)-3-hydroxycyclohexyl)qu inoline-5-sulfonamide] | 5.75 | 4.79 |
| Cc1noc(C)c1-c1cc(S(=O)(=O)N[C@H]2CC[C@H](O)CC2)c2cccnc2c1 [Compound 21, 7-(3,5-dimethylisoxazol-4-yl)-N-((1r,4r)-4-hydroxycyclohexyl)qu inoline-5-sulfonamide] | 10.4 | 17.3 |
| Cc1noc(C)c1-c1cc(S(=O)(=O)NC2CCCC2)c2cc(Br)c(=O)[nH]c2c1 [Compound 22, 3-bromo-N-cyclopentyl-7-(3,5-dimethylisoxazol-4-yl)-2-oxo-1,2-dihydroquinoline-5-sulfonamide] | 1.02 | 0.501 |
| Cc1noc(C)c1-c1cc(S(=O)(=O)N[C@@H]2CCC[C@@H]2O)c2cccnc2c1 [Compound 23, 7-(3,5-dimethylisoxazol-4-yl)-N-((1R,2S)-2-hydroxycyclopentyl)q uinoline-5-sulfonamide] | 19.5 | 16.7 |
| Cc1noc(C)c1-c1cc(S(=O)(=O)NC2(C)CCCC2)c2cccnc2c1 [Compound 24, 7-(3,5-dimethylisoxazol-4-yl)-N-(1-methylcyclopentyl)qui noline-5-sulfonamide] | 3.55 | 2.11 |
| Cc1noc(C)c1-c1cc(S(=O)(=O)N[C@H]2C[C@@H](NC(=O)OC(C)(C)C)C2)c2cccnc2c1 [Compound 25, tert-butyl ((1s,3s)-3-(7-(3,5-dimethylisoxazol-4-yl)quinoline-5-sulfonamido)cyclobutyl)carbamate] | 16.2 | > 20 |
| Cc1noc(C)c1-c1cc(S(=O)(=O)N[C@@H]2CCC[C@H]2O)c2cccnc2c1 [Compound 26, 7-(3,5-dimethylisoxazol-4-yl)-N-((1R,2R)-2-hydroxycyclopentyl)q uinoline-5-sulfonamide] | 4.09 | 3.55 |
| Cc1noc(C)c1-c1cc(S(=O)(=O)N[C@H]2CCC[C@H]2O)c2cccnc2c1 [Compound 27, 7-(3,5-dimethylisoxazol-4-yl)-N-((1S,2R)-2-hydroxycyclopentyl)q uinoline-5-sulfonamide] | 12.5 | 6.8 |
| Cc1noc(C)c1-c1cc(S(=O)(=O)NC2CCCC2)c2cc(-c3ccc(F)cc3)c(=O)[nH]c2c1 [Compound 28, N-cyclopentyl-7-(3,5-dimethylisoxazol-4-yl)-3-(4-fluorophenyl)-2-oxo-1,2-dihydroquinoline-5-sulfonamide] | 0.348 | 0.555 |
| Cc1noc(C)c1-c1cc(S(=O)(=O)NC2CCCC2)c2cc(-c3cccnc3)c(=O)[nH]c2c1 [Compound 29, N-cyclopentyl-7-(3,5-dimethylisoxazol-4-yl)-2-oxo-3-(pyridin-3-yl)-1,2-dihydroquinoline-5-sulfonamide] | 0.253 | 0.241 |
| Cc1noc(C)c1-c1cc(S(=O)(=O)NC2CCCC2)c2cc(-c3cnc(C)n3C)c(=O)[nH]c2c1 [Compound 30, N-cyclopentyl-3-(1,2-dimethyl-1H-imidazol-5-yl)-7-(3,5-dimethylisoxazol-4-yl)-2-oxo-1,2-dihydroquinoline-5-sulfonamide] | 6.4 | 1.7 |
| Cc1noc(C)c1-c1cc(S(=O)(=O)NC2CCCC2)c2cc(C#N)c(=O)[nH]c2c1 [Compound 31, 3-cyano-N-cyclopentyl-7-(3,5-dimethylisoxazol-4-yl)-2-oxo-1,2-dihydroquinoline-5-sulfonamide] | 0.867 | 0.634 |
| Cc1noc(C)c1-c1cc(S(=O)(=O)NC2CCCC2)c2cc(-n3ccnc3)c(=O)[nH]c2c1 [Compound 32, N-cyclopentyl-7-(3,5-dimethylisoxazol-4-yl)-3-(1H-imidazol-1-yl)-2-oxo-1,2-dihydroquinoline-5-sulfonamide] | 0.717 | 0.519 |
| Cc1noc(C)c1-c1cc(S(=O)(=O)NC2CCCC2)c2cc(-n3cccn3)c(=O)[nH]c2c1 [Compound 33, N-cyclopentyl-7-(3,5-dimethylisoxazol-4-yl)-2-oxo-3-(1H-pyrazol-1-yl)-1,2-dihydroquinoline-5-sulfonamide] | 0.76 | 0.561 |
| Cc1noc(C)c1-c1cc(S(=O)(=O)N[C@H]2C[C@@H](N)C2)c2cccnc2c1 [Compound 34, N-((1S,3S)-3-aminocyclobutyl)-7-(3,5-dimethylisoxazol-4-yl)quinoline-5-sulfonamide] | 5.48 | 11.1 |
